Measurements from ChEMBL document CHEMBL2331116, “Microbial transformation of acetyl-11-keto-β-boswellic acid and their inhibitory activity on LPS-induced NO production” (Bioorg Med Chem Lett, 2013).

Assays:
[1] = Cytotoxicity against mouse RAW264.7 cells assessed as cell viability at 100 uM after 24 hrs by MTT assay relative to control; format: cell-based; settings: read-out: Activity
[2] = tested on: RAW264.7; assay: Antiinflammatory activity in mouse RAW264.7 cells assessed as inhibition of LPS-induced NO production after 24 hrs; format: functional, cell-based; settings: RAW264.7, 24 h

SMILES | IC50 [2] [µM] | viability at 24 h, 100 µM [1] [%]
CC(=O)O[C@@H]1CC[C@@]2(C)[C@@H](C[C@H](O)[C@]3(C)[C@@H]2C(=O)C=C2[C@@H]4[C@@H](C)[C@H](C)CC[C@]4(C)[C@H](O)C[C@]23C)[C@@]1(C)C(=O)O | 10.6 | 98.1
CC(=O)O[C@@H]1CC[C@@]2(C)[C@@H](CC[C@]3(C)[C@@H]2C(=O)C=C2[C@@H]4[C@@H](C)[C@H](C)[C@@H](O)C[C@]4(C)C[C@H](O)[C@]23C)[C@@]1(C)C(=O)O | > 100 | 134
CC(=O)O[C@@H]1CC[C@@]2(C)[C@@H](C[C@H](O)[C@]3(C)[C@@H]2C(=O)C=C2[C@@H]4[C@@H](C)[C@H](C)CC[C@]4(C)CC[C@]23C)[C@@]1(C)C(=O)O | 1.5 | 84.2
CC(=O)O[C@@H]1CC[C@@]2(C)[C@@H](C[C@H](O)[C@]3(C)[C@@H]2C(=O)C=C2[C@@H]4[C@@H](C)[C@H](C)C[C@H](O)[C@]4(C)CC[C@]23C)[C@@]1(C)C(=O)O | 76.8 | 89.8
CC(=O)O[C@@H]1CC[C@@]2(C)[C@@H](C[C@H](O)[C@]3(C)[C@@H]2C(=O)C=C2[C@@H]4[C@@H](C)[C@H](C)[C@@H](O)C[C@]4(C)C[C@H](O)[C@]23C)[C@@]1(C)C(=O)O | > 100 | 103
CN(C)c1ccc(O)c2c1C[C@H]1C[C@H]3[C@H](N(C)C)C(O)=C(C(N)=O)C(=O)[C@@]3(O)C(O)=C1C2=O [MINOCYCLINE] |  | 100

Now from value to compound, other results behind:

IC50 [2] [µM] | SMILES | viability at 24 h, 100 µM [1] [%]
> 100 | CC(=O)O[C@@H]1CC[C@@]2(C)[C@@H](C[C@H](O)[C@]3(C)[C@@H]2C(=O)C=C2[C@@H]4[C@@H](C)[C@H](C)CC[C@]4(C)C[C@H](O)[C@]23C)[C@@]1(C)C(=O)O | 108
15.6 | CC(=O)O[C@@H]1CC[C@@]2(C)[C@@H](CC[C@]3(C)[C@@H]2C(=O)C=C2[C@@H]4[C@@H](C)[C@H](C)CC[C@]4(C)CC[C@]23C)[C@@]1(C)C(=O)O [AKBA] | 81.2
87.7 | CC(=O)O[C@@H]1CC[C@@]2(C)[C@@H](C[C@H](O)[C@]3(C)[C@@H]2C(=O)C=C2[C@@H]4[C@@H](C)[C@H](C)[C@@H](O)C[C@]4(C)CC[C@]23C)[C@@]1(C)C(=O)O | 104
